Data reported in PMC7156458, “Synthetic biology based construction of biological activity-related library of fungal decalin-containing diterpenoid pyrones” (Nature Communications, 2020).

Target: Aβ42 (Homo sapiens, UniProt P05067)
Assay: Th-T (thioflavin-T) assay of Aβ42 aggregation
Type: biochemical
Conditions: for Th-T assay plate reading, mean of three wells (Supplementary Fig. 47): source data, Ab alone and No Ab as controls

Aβ42, sequence (P05067 672-713): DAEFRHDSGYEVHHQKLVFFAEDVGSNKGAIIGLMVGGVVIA

C=C1CCC2C(C)(CCC=C(C)C)C(O)CCC2(C)C1Cc1c(O)c(C)c(C)oc1=O (stereo not drawn) [Compound 9, higginsianin B]
Th-T fluorescence, mean of three wells (Aβ42 aggregation time course, reading M117): 2.792 | Th-T fluorescence, mean of three wells (Aβ42 aggregation time course, reading M118): 2.807 | Th-T fluorescence, mean of three wells (Aβ42 aggregation time course, reading M119): 2.796 | Th-T fluorescence, mean of three wells (Aβ42 aggregation time course, reading M120): 2.799 | Th-T fluorescence, mean of three wells (Aβ42 aggregation time course, reading M121): 2.791 | Th-T fluorescence, mean of three wells (Aβ42 aggregation time course, reading M122): 2.801 | Th-T fluorescence, mean of three wells (Aβ42 aggregation time course, reading M123): 2.8089 | Th-T fluorescence, mean of three wells (Aβ42 aggregation time course, reading M124): 2.764 | Th-T fluorescence, mean of three wells (Aβ42 aggregation time course, reading M125): 2.798 | Th-T fluorescence, mean of three wells (Aβ42 aggregation time course, reading M126): 2.7918 | Th-T fluorescence, mean of three wells (Aβ42 aggregation time course, reading M127): 2.782 | Th-T fluorescence, mean of three wells (Aβ42 aggregation time course, reading M128): 2.756 | Th-T fluorescence, mean of three wells (Aβ42 aggregation time course, reading M129): 2.788 | Th-T fluorescence, mean of three wells (Aβ42 aggregation time course, reading M130): 2.772 | Th-T fluorescence, mean of three wells (Aβ42 aggregation time course, reading M131): 2.794 | Th-T fluorescence, mean of three wells (Aβ42 aggregation time course, reading M132): 2.756 | Th-T fluorescence, mean of three wells (Aβ42 aggregation time course, reading M133): 2.787 | Th-T fluorescence, mean of three wells (Aβ42 aggregation time course, reading M134): 2.786 | Th-T fluorescence, mean of three wells (Aβ42 aggregation time course, reading M135): 2.766 | Th-T fluorescence, mean of three wells (Aβ42 aggregation time course, reading M136): 2.788 | Th-T fluorescence, mean of three wells (Supplementary Fig. 47, reading M137): 2.782 | Th-T fluorescence, mean of three wells (Supplementary Fig. 47, reading M138): 2.781 | Th-T fluorescence, mean of three wells (Supplementary Fig. 47, reading M139): 2.778 | Th-T fluorescence, mean of three wells (Supplementary Fig. 47, reading M140): 2.777 | Th-T fluorescence, mean of three wells (Supplementary Fig. 47, reading M141): 2.762 | Th-T fluorescence, mean of three wells (Supplementary Fig. 47, reading M142): 2.77 | Th-T fluorescence, mean of three wells (Supplementary Fig. 47, reading M143): 2.794 | Th-T fluorescence, mean of three wells (Supplementary Fig. 47, reading M144): 2.791 | Th-T fluorescence, mean of three wells (Supplementary Fig. 47, reading M145): 2.767 | Th-T assay plate reading, mean of three wells (Supplementary Fig. 47) (measurement M1): 0.2408 | Th-T assay plate reading, mean of three wells (Supplementary Fig. 47) (measurement M2): 0.2372 | Th-T assay plate reading, mean of three wells (Supplementary Fig. 47) (measurement M3): 0.2484 | Th-T assay plate reading, mean of three wells (Supplementary Fig. 47) (measurement M4): 0.2764 | Th-T assay plate reading, mean of three wells (Supplementary Fig. 47) (measurement M5): 0.3211 | Th-T assay plate reading, mean of three wells (Supplementary Fig. 47) (measurement M6): 0.3818 | Th-T assay plate reading, mean of three wells (Supplementary Fig. 47) (measurement M7): 0.386 | Th-T assay plate reading, mean of three wells (Supplementary Fig. 47) (measurement M8): 0.4241 | Th-T assay plate reading, mean of three wells (Supplementary Fig. 47) (measurement M9): 0.4754 | Th-T assay plate reading, mean of three wells (Supplementary Fig. 47) (measurement M10): 0.5222 | Th-T assay plate reading, mean of three wells (Supplementary Fig. 47) (measurement M11): 0.5741 | Th-T assay plate reading, mean of three wells (Supplementary Fig. 47) (measurement M12): 0.6179 | Th-T assay plate reading, mean of three wells (Supplementary Fig. 47) (measurement M13): 0.6443 | Th-T assay plate reading, mean of three wells (Supplementary Fig. 47) (measurement M14): 0.6952 | Th-T assay plate reading, mean of three wells (Supplementary Fig. 47) (measurement M15): 0.7748 | Th-T assay plate reading, mean of three wells (Supplementary Fig. 47) (measurement M16): 1.021 | Th-T fluorescence, mean of three wells (reading M17, Supplementary Fig. 47 source data): 1.394 | Th-T fluorescence, mean of three wells (time-course reading M97, Supplementary Fig. 47 source data): 2.816 | Th-T fluorescence, mean of three wells (time-course reading M98, Supplementary Fig. 47 source data): 2.842 | Th-T fluorescence, mean of three wells (time-course reading M99, Supplementary Fig. 47 source data): 2.834 | Th-T fluorescence, mean of three wells (time-course reading M100, Supplementary Fig. 47 source data): 2.825 | Th-T fluorescence, mean of three wells (time-course reading M101, Supplementary Fig. 47 source data): 2.818 | Th-T fluorescence, mean of three wells (time-course reading M102, Supplementary Fig. 47 source data): 2.832 | Th-T fluorescence, mean of three wells (time-course reading M103, Supplementary Fig. 47 source data): 2.816 | Th-T fluorescence, mean of three wells (time-course reading M104, Supplementary Fig. 47 source data): 2.8075 | Th-T fluorescence, mean of three wells (time-course reading M105, Supplementary Fig. 47 source data): 2.8016 | Th-T fluorescence, mean of three wells (time-course reading M106, Supplementary Fig. 47 source data): 2.808 | Th-T fluorescence, mean of three wells (time-course reading M107, Supplementary Fig. 47 source data): 2.794 | Th-T fluorescence, mean of three wells (time-course reading M108, Supplementary Fig. 47 source data): 2.811 | Th-T fluorescence, mean of three wells (time-course reading M109, Supplementary Fig. 47 source data): 2.783 | Th-T fluorescence, mean of three wells (time-course reading M110, Supplementary Fig. 47 source data): 2.799 | Th-T fluorescence, mean of three wells (time-course reading M111, Supplementary Fig. 47 source data): 2.807 | Th-T fluorescence, mean of three wells (time-course reading M112, Supplementary Fig. 47 source data): 2.812 | Th-T fluorescence, mean of three wells (time-course reading M113, Supplementary Fig. 47 source data): 2.81 | Th-T fluorescence, mean of three wells (time-course reading M114, Supplementary Fig. 47 source data): 2.8 | Th-T fluorescence, mean of three wells (time-course reading M115, Supplementary Fig. 47 source data): 2.812 | Th-T fluorescence, mean of three wells (time-course reading M116, Supplementary Fig. 47 source data): 2.796
